Data published in PubChem BioAssay (NCI).
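Method: 48-hour compound exposure of cells in 96-well plates, five concentrations, linear interpolation of endpoints. The concentration for full growth arrest is given as TGI.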

What was measured:
Assay in all cases: NCI-60 cell line screen, 48 h
SF-539 CNS = tested on: SF-539 CNS
SK-MEL-2 melanoma = tested on: SK-MEL-2 melanoma
IGROV1 ovarian = tested on: IGROV1 ovarian
MDA-N = tested on: MDA-N
HCT-116 colon = tested on: HCT-116 colon
SK-MEL-28 melanoma = tested on: SK-MEL-28 melanoma
NCI-H522 lung = tested on: NCI-H522 lung
SN12C renal = tested on: SN12C renal
OVCAR-3 ovarian = tested on: OVCAR-3 ovarian
HT29 colon = tested on: HT29 colon
HOP-62 NSCLC = tested on: HOP-62 NSCLC
NCI-H23 lung = tested on: NCI-H23 lung
COLO 205 colon = tested on: COLO 205 colon
EKVX NSCLC = tested on: EKVX NSCLC
MDA-MB-435 = tested on: MDA-MB-435
HS 578T breast = tested on: HS 578T breast
SNB-19 CNS = tested on: SNB-19 CNS
U251 CNS = tested on: U251 CNS
NCI-H226 lung = tested on: NCI-H226 lung
BT-549 breast = tested on: BT-549 breast
MDA-MB-231 breast = tested on: MDA-MB-231 breast
DU-145 prostate = tested on: DU-145 prostate
SR leukemia = tested on: SR leukemia
HOP-92 NSCLC = tested on: HOP-92 NSCLC
SF-268 CNS = tested on: SF-268 CNS
SF-295 CNS = tested on: SF-295 CNS
RPMI-8226 leukemia = tested on: RPMI-8226 leukemia
MALME-3M melanoma = tested on: MALME-3M melanoma
SW-620 colon = tested on: SW-620 colon
T-47D breast = tested on: T-47D breast
HCT-15 colon = tested on: HCT-15 colon
MOLT-4 leukemia = tested on: MOLT-4 leukemia
NCI/ADR-RES ovarian = tested on: NCI/ADR-RES ovarian
A549 NSCLC = tested on: A549 NSCLC
UO-31 renal = tested on: UO-31 renal
786-0 renal = tested on: 786-0 renal
CAKI-1 renal = tested on: CAKI-1 renal
HL-60(TB) leukemia = tested on: HL-60(TB) leukemia
SNB-75 CNS = tested on: SNB-75 CNS
LOX IMVI melanoma = tested on: LOX IMVI melanoma
OVCAR-4 ovarian = tested on: OVCAR-4 ovarian
M14 melanoma = tested on: M14 melanoma
PC-3 prostate = tested on: PC-3 prostate
RXF 393 renal = tested on: RXF 393 renal
HCC-2998 colon = tested on: HCC-2998 colon
SK-OV-3 ovarian = tested on: SK-OV-3 ovarian
MCF7 breast = tested on: MCF7 breast
UACC-62 melanoma = tested on: UACC-62 melanoma
UACC-257 melanoma = tested on: UACC-257 melanoma
KM12 colon = tested on: KM12 colon
OVCAR-8 ovarian = tested on: OVCAR-8 ovarian
OVCAR-5 ovarian = tested on: OVCAR-5 ovarian
TK-10 renal = tested on: TK-10 renal
ACHN renal = tested on: ACHN renal
CCRF-CEM leukemia = tested on: CCRF-CEM leukemia
K-562 leukemia = tested on: K-562 leukemia
SK-MEL-5 melanoma = tested on: SK-MEL-5 melanoma
NCI-H460 lung = tested on: NCI-H460 lung

O=C1NC(N2CCCCC2)=N/C1=C\c1ccccc1
TGI (SF-539 CNS): > 100 µM | TGI (SK-MEL-2 melanoma): > 100 µM | TGI (IGROV1 ovarian): > 100 µM | TGI (MDA-N): > 100 µM | TGI (HCT-116 colon): > 100 µM | TGI (SK-MEL-28 melanoma): > 100 µM | TGI (NCI-H522 lung): > 100 µM | TGI (SN12C renal): > 100 µM | TGI (OVCAR-3 ovarian): > 100 µM | TGI (HT29 colon): > 100 µM | TGI (HOP-62 NSCLC): > 100 µM | TGI (NCI-H23 lung): > 100 µM | TGI (COLO 205 colon): > 100 µM | TGI (EKVX NSCLC): > 100 µM | TGI (MDA-MB-435): > 100 µM | TGI (HS 578T breast): > 100 µM | TGI (SNB-19 CNS): > 100 µM | TGI (U251 CNS): > 100 µM | TGI (NCI-H226 lung): > 100 µM | TGI (BT-549 breast): > 100 µM | TGI (MDA-MB-231 breast): > 100 µM | TGI (DU-145 prostate): > 100 µM | TGI (SR leukemia): > 100 µM | TGI (HOP-92 NSCLC): > 100 µM | TGI (SF-268 CNS): > 100 µM | TGI (SF-295 CNS): > 100 µM | TGI (RPMI-8226 leukemia): > 100 µM | TGI (MALME-3M melanoma): > 100 µM | TGI (SW-620 colon): > 100 µM | TGI (T-47D breast): > 100 µM | TGI (HCT-15 colon): > 100 µM | TGI (MOLT-4 leukemia): > 100 µM | TGI (NCI/ADR-RES ovarian): > 100 µM | TGI (A549 NSCLC): > 100 µM | TGI (UO-31 renal): > 100 µM | TGI (786-0 renal): > 100 µM | TGI (CAKI-1 renal): > 100 µM | TGI (HL-60(TB) leukemia): > 100 µM | TGI (SNB-75 CNS): > 100 µM | TGI (LOX IMVI melanoma): > 100 µM | TGI (OVCAR-4 ovarian): > 100 µM | TGI (M14 melanoma): > 100 µM | TGI (PC-3 prostate): > 100 µM | TGI (RXF 393 renal): > 100 µM | TGI (HCC-2998 colon): > 100 µM | TGI (SK-OV-3 ovarian): > 100 µM | TGI (MCF7 breast): > 100 µM | TGI (UACC-62 melanoma): > 100 µM | TGI (UACC-257 melanoma): > 100 µM | TGI (KM12 colon): > 100 µM | TGI (OVCAR-8 ovarian): > 100 µM | TGI (OVCAR-5 ovarian): > 100 µM | TGI (TK-10 renal): > 100 µM | TGI (ACHN renal): > 100 µM | TGI (CCRF-CEM leukemia): > 100 µM

CCNC1=C(NC(=O)CCl)C(=O)c2ccccc2C1=O
TGI (SF-539 CNS): 44.5 µM | TGI (IGROV1 ovarian): > 10 µM | TGI (MDA-N): 29.2 µM | TGI (HCT-116 colon): 33.7 µM | TGI (SK-MEL-28 melanoma): 31.7 µM | TGI (NCI-H522 lung): 32.2 µM | TGI (SN12C renal): 32.8 µM | TGI (OVCAR-3 ovarian): 31.5 µM | TGI (HT29 colon): > 10 µM | TGI (HOP-62 NSCLC): 30.2 µM | TGI (NCI-H23 lung): 36 µM | TGI (COLO 205 colon): > 10 µM | TGI (K-562 leukemia): > 100 µM | TGI (EKVX NSCLC): 29.6 µM | TGI (MDA-MB-435): 36.4 µM | TGI (HS 578T breast): 60.6 µM | TGI (SNB-19 CNS): 54.5 µM | TGI (U251 CNS): 35.9 µM | TGI (NCI-H226 lung): 48.2 µM | TGI (BT-549 breast): > 10 µM | TGI (MDA-MB-231 breast): 40.9 µM | TGI (DU-145 prostate): > 10 µM | TGI (SR leukemia): 80.3 µM | TGI (HOP-92 NSCLC): 36.2 µM | TGI (SF-268 CNS): 32.8 µM | TGI (SF-295 CNS): 36.9 µM | TGI (RPMI-8226 leukemia): > 100 µM | TGI (MALME-3M melanoma): 34.9 µM | TGI (SW-620 colon): 74.6 µM | TGI (SK-MEL-5 melanoma): 30.3 µM | TGI (T-47D breast): 44.7 µM | TGI (HCT-15 colon): 33.6 µM | TGI (MOLT-4 leukemia): 55.5 µM | TGI (NCI/ADR-RES ovarian): 44 µM | TGI (A549 NSCLC): 99.6 µM | TGI (786-0 renal): > 100 µM | TGI (HL-60(TB) leukemia): 88.9 µM | TGI (SNB-75 CNS): > 10 µM | TGI (OVCAR-4 ovarian): 30.7 µM | TGI (M14 melanoma): 42.6 µM | TGI (PC-3 prostate): 30.3 µM | TGI (RXF 393 renal): 30.6 µM | TGI (HCC-2998 colon): > 10 µM | TGI (SK-OV-3 ovarian): > 10 µM | TGI (MCF7 breast): 47.4 µM | TGI (NCI-H460 lung): 57.4 µM | TGI (UACC-257 melanoma): > 10 µM | TGI (KM12 colon): 32 µM | TGI (OVCAR-8 ovarian): 38.3 µM | TGI (OVCAR-5 ovarian): 34.2 µM | TGI (TK-10 renal): 31.5 µM | TGI (ACHN renal): 31.9 µM | TGI (CCRF-CEM leukemia): 58.1 µM
